The experiment addresses E. coli RNAP (Escherichia coli, UniProt P0A8T7+P0A8V2). The experiment can be described thus: Two-batch protocol: transcription in presence of fluoride, wash, then Cas13a detection. It counts as biochemical. The settings on record: fluoride riboswitch template, FIG. 6C. On the procedure: In another exemplary method, two-batch methods included, 30 μL in vitro transcription reactions carried out as described above but without addition of Cas13a, crRNA, labeled RNA oligos, RNase inhibitor. Then, the reaction was washed three times with 500 μL ddH2O using an centrifugal filter (0.5 ml, 10 kDa cutoff). After concentrating the solution to approximately 20 μL, aliquots of 6 μL were taken and added to a 24 μL of a SHERLOCK reaction (described below).
The B. cereus crcB fluoride riboswitch is a regulatory switch that turns on expression of the fluoride efflux pump crcB via selectively binding fluoride over chloride. […] This may be explained in part by an observed inhibition of the assay at fluoride concentrations above 100 μM. To understand whether this effect stems from inhibition of the E. coli RNAP or inhibition of Cas13a, SHERLOCK reactions without RNAP were conducted at varying concentrations of sodium fluoride (FIG. 6A). […] To measure the response of the RNAP to fluoride, an exemplary two-batch protocol was developed (FIG. 6B) to first transcribe RNA in presence of fluoride, then wash out the fluoride and add the washed transcripts to Cas13a. […] The two-batch assay could also be used to wash out Cas13a-inhibiting compounds after transcription that would otherwise interfere with the assay.

The values that follow come from patent publication US20230279482A1, “COMPOSITIONS, METHODS AND USES FOR QUANTIFYING TRANSCRIPTION AND BIOSENSING OF SMALL MOLECULES USING A NOVEL TYPE VI CRISPR-CAS ASSAY” (THE REGENTS OF THE UNIVERSITY OF COLORADO, A BODY CORPORATE, priority 2020, published 2023).

Structures are written as SMILES.

E. coli RNAP, sequence (P0A8V2 whole entry): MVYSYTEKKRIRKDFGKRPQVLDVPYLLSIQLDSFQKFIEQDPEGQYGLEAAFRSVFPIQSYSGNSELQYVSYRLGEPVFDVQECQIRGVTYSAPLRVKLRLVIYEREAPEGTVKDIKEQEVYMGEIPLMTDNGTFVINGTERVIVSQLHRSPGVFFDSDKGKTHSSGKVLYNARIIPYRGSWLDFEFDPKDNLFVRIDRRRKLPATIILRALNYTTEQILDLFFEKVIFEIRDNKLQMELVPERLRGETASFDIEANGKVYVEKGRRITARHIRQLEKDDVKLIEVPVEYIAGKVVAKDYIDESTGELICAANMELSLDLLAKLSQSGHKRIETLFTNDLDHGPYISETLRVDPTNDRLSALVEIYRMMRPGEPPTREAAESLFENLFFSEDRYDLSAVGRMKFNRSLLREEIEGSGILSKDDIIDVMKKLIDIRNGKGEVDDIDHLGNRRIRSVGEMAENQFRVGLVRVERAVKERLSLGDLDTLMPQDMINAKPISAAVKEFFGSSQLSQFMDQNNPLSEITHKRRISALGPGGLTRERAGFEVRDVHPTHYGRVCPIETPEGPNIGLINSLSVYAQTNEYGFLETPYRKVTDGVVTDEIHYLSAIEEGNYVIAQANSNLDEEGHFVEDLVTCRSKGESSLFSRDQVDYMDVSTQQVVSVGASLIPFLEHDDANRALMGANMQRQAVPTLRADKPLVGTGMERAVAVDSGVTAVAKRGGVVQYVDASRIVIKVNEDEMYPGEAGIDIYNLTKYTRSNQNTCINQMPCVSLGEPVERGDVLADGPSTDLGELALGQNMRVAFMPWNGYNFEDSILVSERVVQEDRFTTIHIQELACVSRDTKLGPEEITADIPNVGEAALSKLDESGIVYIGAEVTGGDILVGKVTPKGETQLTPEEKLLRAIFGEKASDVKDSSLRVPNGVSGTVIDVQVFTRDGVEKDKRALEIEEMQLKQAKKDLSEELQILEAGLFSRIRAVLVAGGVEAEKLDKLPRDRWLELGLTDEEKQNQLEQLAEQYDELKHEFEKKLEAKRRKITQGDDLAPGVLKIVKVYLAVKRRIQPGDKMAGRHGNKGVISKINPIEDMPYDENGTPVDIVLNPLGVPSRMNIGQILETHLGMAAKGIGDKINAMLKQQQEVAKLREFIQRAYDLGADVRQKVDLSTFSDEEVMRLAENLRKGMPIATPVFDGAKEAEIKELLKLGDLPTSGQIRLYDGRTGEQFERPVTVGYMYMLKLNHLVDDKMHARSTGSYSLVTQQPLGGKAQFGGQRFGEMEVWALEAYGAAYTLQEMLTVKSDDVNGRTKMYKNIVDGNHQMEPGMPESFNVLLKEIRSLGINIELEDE
E. coli RNAP, sequence (P0A7Z4 whole entry, further chain): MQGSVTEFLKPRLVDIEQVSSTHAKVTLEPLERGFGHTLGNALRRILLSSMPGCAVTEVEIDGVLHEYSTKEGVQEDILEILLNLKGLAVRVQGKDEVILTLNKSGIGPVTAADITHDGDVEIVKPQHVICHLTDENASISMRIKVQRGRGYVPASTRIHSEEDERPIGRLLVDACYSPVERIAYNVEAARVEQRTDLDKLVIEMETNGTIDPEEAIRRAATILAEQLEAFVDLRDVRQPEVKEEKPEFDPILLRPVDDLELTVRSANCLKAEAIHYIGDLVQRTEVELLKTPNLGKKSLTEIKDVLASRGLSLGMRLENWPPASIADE
E. coli RNAP, sequence (P0A800 whole entry, further chain): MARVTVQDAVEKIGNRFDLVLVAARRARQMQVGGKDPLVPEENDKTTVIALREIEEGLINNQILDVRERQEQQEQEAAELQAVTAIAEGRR
E. coli RNAP, sequence (P0A8T7 whole entry): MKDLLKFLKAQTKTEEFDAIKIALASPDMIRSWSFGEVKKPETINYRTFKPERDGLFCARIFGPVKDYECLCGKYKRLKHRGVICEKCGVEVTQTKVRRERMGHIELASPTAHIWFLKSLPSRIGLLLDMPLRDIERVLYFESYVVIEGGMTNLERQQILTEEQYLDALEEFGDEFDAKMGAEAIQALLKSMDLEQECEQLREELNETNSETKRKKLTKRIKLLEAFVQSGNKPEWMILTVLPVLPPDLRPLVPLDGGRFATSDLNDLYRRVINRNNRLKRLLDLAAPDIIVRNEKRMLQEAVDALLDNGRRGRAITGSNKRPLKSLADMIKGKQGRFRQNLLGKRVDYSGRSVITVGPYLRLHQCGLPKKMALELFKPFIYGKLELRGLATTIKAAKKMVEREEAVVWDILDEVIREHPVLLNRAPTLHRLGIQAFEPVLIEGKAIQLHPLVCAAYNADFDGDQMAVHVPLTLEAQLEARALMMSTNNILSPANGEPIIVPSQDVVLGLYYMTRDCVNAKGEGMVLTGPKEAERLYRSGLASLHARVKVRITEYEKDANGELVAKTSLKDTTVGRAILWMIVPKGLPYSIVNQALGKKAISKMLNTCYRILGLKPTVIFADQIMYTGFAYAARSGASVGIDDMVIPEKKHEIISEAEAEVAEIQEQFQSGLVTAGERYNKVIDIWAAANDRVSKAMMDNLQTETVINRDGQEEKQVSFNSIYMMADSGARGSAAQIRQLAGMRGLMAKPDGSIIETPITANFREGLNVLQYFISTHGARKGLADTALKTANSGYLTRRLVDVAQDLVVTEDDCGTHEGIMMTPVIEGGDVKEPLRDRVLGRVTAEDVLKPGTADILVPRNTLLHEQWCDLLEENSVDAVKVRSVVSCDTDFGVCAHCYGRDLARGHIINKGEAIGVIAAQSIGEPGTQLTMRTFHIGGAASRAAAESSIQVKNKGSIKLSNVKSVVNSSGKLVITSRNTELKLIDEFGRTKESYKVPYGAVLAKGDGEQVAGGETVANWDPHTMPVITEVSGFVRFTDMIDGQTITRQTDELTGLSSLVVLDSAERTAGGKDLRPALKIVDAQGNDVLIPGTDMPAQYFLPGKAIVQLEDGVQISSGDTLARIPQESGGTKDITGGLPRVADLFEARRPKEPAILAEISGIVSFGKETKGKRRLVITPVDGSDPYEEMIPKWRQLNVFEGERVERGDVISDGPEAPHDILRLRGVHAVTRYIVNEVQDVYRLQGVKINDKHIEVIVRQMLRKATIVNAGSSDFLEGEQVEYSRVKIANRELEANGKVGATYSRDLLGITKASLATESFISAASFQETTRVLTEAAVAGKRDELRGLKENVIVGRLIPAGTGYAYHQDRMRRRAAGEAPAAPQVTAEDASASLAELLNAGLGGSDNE

For the molecule `[F-].[Na+]` [fluoride, sodium fluoride], the “concentration that drastically reduced transcriptional activity” value was no less than 125 µM and the “concentration up to which transcription is induced in a linear manner” value is no more than 100 µM.
